In patent publication EP4763847A1 (Jiangsu Yahong Meditech Co., Ltd., priority 2023, dated 2025):
Like-named read-outs stand apart in the source and are kept apart here.

Key:
HCT116 MTAP KO = test: Cell proliferation inhibition (CellTiter Glo), HCT116 MTAP KO cells; format: cell-based; conditions: cultured 6 days with compound
Procedure: (§1) Test Example 2: Test of cell proliferation inhibition activity of the compounds
(§2) HCT116-WT (ATCC, CCL-247) and HCT116 MTAP KO (Cobioer Nanjing, CBP75002) cells were seeded into white low-transparency 96-well sterile cell culture plates at a density of 250 cells per well, respectively. The culture medium was McCoy's 5A Medium + 10% FBS. The plates were incubated overnight at 37°C with 5% CO2. The cells were treated with compounds gradiently with an initial concentration of 10000 nM, 4-fold dilution, and 8 concentration points. The last two columns were control wells with only DMSO added. The treated cells were continued to be cultured for 6 days. On the seventh day, 50 µL of CellTiter Glo® reagent was added to each well. After reacting on a shaker at room temperature for 10 minutes, the chemiluminescence signal in the plate was detected using the chemiluminescence detection method on a BIOTEK H1 multi-mode plate reader. […] Table 2: IC50 values of compounds for HCT116 MTAP KO/WT cell growth inhibition

HCT116-WT = test: Cell proliferation inhibition (CellTiter Glo), HCT116-WT cells; format: cell-based; conditions: cultured 6 days with compound
Procedure: as §1, §2

PRMT5-MTA [1] = biological target: T1, PRMT5-MTA (Homo sapiens, UniProt O14744); test: biochemical; conditions: IC50 (nM), PRMT5+MTA enzyme activity inhibition; PRMT5/MET50 protein 1 nM, 5'-deoxy-5'-adenosine 1 µM, SAM 2.5 µM, Histone H4 substrate 5 nM
T1 sequence (O14744 whole entry): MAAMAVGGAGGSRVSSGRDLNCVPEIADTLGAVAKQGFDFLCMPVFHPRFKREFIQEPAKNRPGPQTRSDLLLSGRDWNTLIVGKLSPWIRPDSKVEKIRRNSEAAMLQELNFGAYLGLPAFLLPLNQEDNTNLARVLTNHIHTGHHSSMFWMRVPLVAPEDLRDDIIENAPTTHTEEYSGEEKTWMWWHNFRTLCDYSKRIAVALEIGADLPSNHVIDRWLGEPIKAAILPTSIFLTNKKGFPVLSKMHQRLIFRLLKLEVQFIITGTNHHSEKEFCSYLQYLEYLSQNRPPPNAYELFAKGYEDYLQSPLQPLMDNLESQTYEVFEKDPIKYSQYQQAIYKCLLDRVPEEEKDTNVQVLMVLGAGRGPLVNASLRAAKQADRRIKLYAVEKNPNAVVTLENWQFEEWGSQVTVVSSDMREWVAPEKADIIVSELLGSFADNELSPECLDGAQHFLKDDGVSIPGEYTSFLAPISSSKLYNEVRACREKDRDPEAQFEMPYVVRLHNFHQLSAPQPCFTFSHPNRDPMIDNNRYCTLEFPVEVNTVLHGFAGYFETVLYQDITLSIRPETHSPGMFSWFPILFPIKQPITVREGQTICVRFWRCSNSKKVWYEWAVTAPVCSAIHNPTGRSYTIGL
T1 sequence (Q9BQA1 whole entry partner): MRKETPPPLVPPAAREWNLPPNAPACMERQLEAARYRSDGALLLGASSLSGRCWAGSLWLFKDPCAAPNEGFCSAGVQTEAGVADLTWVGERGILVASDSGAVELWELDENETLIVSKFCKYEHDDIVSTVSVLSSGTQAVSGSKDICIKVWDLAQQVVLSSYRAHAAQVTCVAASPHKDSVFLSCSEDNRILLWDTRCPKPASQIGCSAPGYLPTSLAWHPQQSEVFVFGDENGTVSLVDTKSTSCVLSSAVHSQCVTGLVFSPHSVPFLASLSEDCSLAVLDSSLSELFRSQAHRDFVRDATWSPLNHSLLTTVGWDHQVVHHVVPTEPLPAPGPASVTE
Procedure: (§3) The enzymatic inhibition activity of the compounds against PRMT5-MTA was detected using the AlphaScreen method. A 1× methyltransferase assay buffer IV (Signalchem) was prepared as a dilution solution for each component of the enzymatic reaction. […] The test compounds were added to all wells except the control wells in a 3-fold dilution series of 10 concentration points starting from 1000 nM using a Tecan D300e. After centrifugation at 1000 rpm for 1 minute in a centrifuge, the plate was incubated at 23°C for 15 minutes. Histone H4 substrate at a final concentration of 5 nM was added to the plate at 4 µL per well. After centrifugation at 1000 rpm for 1 minute in a centrifuge, the plate was reacted in an incubator at 23°C for 45 minutes. Anti-Histone H4 (symmetric dimethyl R3) antibody (Abcam) was pre-incubated with 50 µg/mL AlphaScreen Protein A Acceptor beads (PerkinElmer) at room temperature for 10 minutes, and then added to the plate in a volume of 10 µL per well, followed by reaction at room temperature for 1 hour. 10 µL of 50 µg/mL AlphaScreen Streptavidin Donor beads (PerkinElmer) were added to each well, and reacted at room temperature for 1 hour. The signal values in the plate were detected using the Alpha method on an Envision multi-mode plate reader. The IC50 values of the compounds for PRMT5/MET50 enzyme activity inhibition were calculated in Xlfit 5.0 software.

PRMT5-MTA [2] = biological target: T1, PRMT5-MTA; conditions: PRMT5+MTA enzyme activity inhibition; PRMT5/MET50 protein 1 nM, 5'-deoxy-5'-adenosine 1 µM, SAM 2.5 µM, Histone H4 substrate 5 nM
Procedure: as §3

| Compound | IC50 (HCT116 MTAP KO; Homo sapiens, HCT-116, 144 h) [nM] | IC50 (HCT116-WT; 144 h) [nM] | IC50 (PRMT5-MTA [1]) [nM] | IC50 (HCT116 MTAP KO) [nM] | IC50 (HCT116-WT) [nM] | IC50 (PRMT5-MTA [2]) [nM] |
| --- | --- | --- | --- | --- | --- | --- |
| CNC(N)=Nc1ccc(C(=O)N(Cc2ccc3sc(C4CCN(C)CC4)nc3c2)[C@H](C)c2ccccc2F)cn1 [Compound 79] | 782 | 3440 | 3.1 | – | – | – |
| CN/C(N)=N\c1ccc(C(=O)N(Cc2ccc(-c3ccc(N4CCN(C)CC4)nc3)cn2)[C@H](C)c2ccccc2F)cn1 [Compound 130, (R,Z)-6-((amino(methylamino)methylene)amino)-N-(1-(2-fluorophenyl)ethyl)-N-((6'-(4-methylpiperazin-1-yl)-[3,3'-bipyridin]-6-yl)methyl)nicotinamide] | 329 | 1570 | 9.7 | – | – | – |
| CNC(N)=Nc1ccc(C(=O)N(Cc2ccc(C(F)(F)F)cn2)C(C)c2ccccn2)cn1 (stereo not drawn) [Compound 34] | 182 | 3480 | 1.8 | – | – | – |
| 6-((isobutyrylamido(methylamino)methylene)amino)-N-(1-(pyrimidin-2-yl)ethyl)-N-((5 -(trifluoromethyl)pyridin-2-yl)methyl)nicotinamide [Compound 29] | – | – | – | 590 | 3730 | 8.2 |
| CNC(N)=Nc1ccc(C(=O)N(Cc2ccc(C(F)(F)F)cn2)C(C)c2cccc(C)c2)cn1 (stereo not drawn) [Compound 31, 6-((amino(methylamino)methylene)amino)-N-(1-(m-tolyl)ethyl)-N-((5-(trifluoromethyl)pyridin-2-yl)methyl)nicotinamide] | 302 | 3360 | 3.4 | – | – | – |
| CNC(N)=Nc1ccc(C(=O)N(Cc2ccc(C)nc2)[C@H](C)c2ccccc2F)cn1 [Compound 109] | 658 | 7720 | 5.8 | – | – | – |
| NC(=Nc1ccc(C(=O)N(Cc2ccc(C(F)(F)F)cn2)C2CCCc3cccnc32)cn1)NO (stereo not drawn) [Compound 117] | 21 | 115 | 5.7 | – | – | – |
| CC(c1ncccn1)N(Cc1ccc(C(F)(F)F)cn1)C(=O)c1ccc(N=C(N)N)nc1 (stereo not drawn) [Compound 7] | 422 | 1520 | 2.1 | – | – | – |
| CNC(N)=Nc1ccc(C(=O)N(Cc2ccc3cnccc3c2)[C@H](C)c2ccccc2F)cn1 [Compound 98] | 64 | 1090 | 8.7 | – | – | – |
| CNC(N)=Nc1ccc(C(=O)N(Cc2ccc(C(F)(F)F)cn2)C(C)c2cccc(F)c2)cn1 (stereo not drawn) [compound 119] | 398 | 2790 | 1.3 | – | – | – |
| CNC(N)=Nc1ccc(C(=O)N(Cc2ccc(C(C)F)cn2)[C@H](C)c2ccccc2F)cn1 (stereo partly drawn) [Compound 74, 6-((Z)-(amino(methylamino)methylene)amino)-N-((5-(1-fluoroethyl)pyridin-2-yl)methy 1)-N-((R)-1-(2-fluorophenyl)ethyl)nicotinamide] | 41 | 744 | 8 | – | – | – |
| CNC(N)=Nc1ccc(C(=O)N(Cc2ccc(-c3cnc(C)nc3)cn2)[C@H](C)c2ccccc2F)cn1 [Compound 70] | 150 | 2580 | 3.9 | – | – | – |
| CNC(N)=Nc1ccc(C(=O)N(Cc2ccc(C(F)(F)F)cn2)[C@@H]2CCc3ccccc32)cn1 [Compound 83] | 195 | 1710 | 4 | – | – | – |
| CN/C(N)=N\c1ccc(C(=O)N(Cc2ccc(C(F)(F)F)cn2)C(C)c2ncccc2F)cn1 (single isomer, unassigned) [Compound 65] | 30 | 569 | 5.4 | – | – | – |
| CNC(N)=Nc1ccc(C(=O)N(Cc2ccc(C(F)(F)F)cn2)[C@H]2CCc3ccccc32)cn1 [Compound 87] | 975 | 3310 | 2.7 | – | – | – |
| CNC(N)=Nc1ccc(C(=O)N(Cc2ccc(C(F)(F)F)cn2)C2CCOc3cccnc32)cn1 (stereo not drawn) [Compound 90] | 81 | 1520 | 1.5 | – | – | – |
| CNC(N)=Nc1ccc(C(=O)N(Cc2ccc(C(F)(F)F)cn2)N(C)c2ncccn2)cn1 [Compound 113] | 49 | 2650 | 3.2 | – | – | – |

| Compound | IC50 (HCT116 MTAP KO; Homo sapiens, HCT-116, 144 h) [nM] | IC50 (HCT116-WT; 144 h) [nM] | IC50 (PRMT5-MTA [1]) [nM] | IC50 (HCT116 MTAP KO) [nM] | IC50 (HCT116-WT) [nM] | IC50 (PRMT5-MTA [2]) [nM] |
| --- | --- | --- | --- | --- | --- | --- |
| CNC(N)=Nc1ccc(C(=O)N(Cc2ccc(C(F)(F)F)cn2)C2CCCc3cccnc32)cn1 (stereo not drawn) [Compound 44] | – | – | 2.6 | 17 | 493 | – |
| CNC(N)=Nc1ccc(C(=O)N(Cc2ccccc2)Cc2ccc(C(F)(F)F)cn2)cn1 [Compound 36] | 521 | 5360 | 3.6 | – | – | – |
| CNC(N)=Nc1ccc(C(=O)N(Cc2ccc(C(F)(F)F)cn2)c2cccc3ccccc23)cn1 [Compound 47] | 31 | 593 | 1.4 | – | – | – |
| CN/C(N)=N\c1ccc(C(=O)N(Cc2ccc(C(F)(F)F)cn2)C(c2ccccc2F)C2CC2)cn1 (stereo not drawn) [Compound 94, (Z)-6-((amino(methylamino)methylene)amino)-N-(cyclopropyl(2-fluorophenyl)methyl) -N-((5-(trifluoromethyl)pyridin-2-yl)methyl)nicotinamide] | 49 | 912 | 6.6 | – | – | – |
| CNC(N)=Nc1ccc(C(=O)N(Cc2ccncc2)[C@H](C)c2ccccc2F)cn1 [Compound 107] | 474 | 8230 | 4 | – | – | – |
| CNC(N)=Nc1ccc(C(=O)N(Cc2ccc(C(F)(F)F)cn2)C(C)c2ccccc2OC(F)(F)F)cn1 (stereo not drawn) [Compound 60] | 933 | 2950 | 2.8 | – | – | – |
| CNC(N)=Nc1ccc(C(=O)N(Cc2cccc(Cl)c2)[C@H](C)c2ccccc2F)cn1 [Compound 106] | 601 | 2890 | 5.9 | – | – | – |
| CN/C(N)=N\c1ccc(C(=O)N(Cc2ccc(C(F)(F)F)cn2)[C@H](C)c2ccc(F)cc2F)cn1 [Compound 82, (R,Z)-6-((amino(methylamino)methylene)amino)-N-(1-(2,4-difluorophenyl)ethyl)-N-((5-(trifluoromethyl)pyridin-2-yl)methyl)nicotinamide] | 18 | 226 | 4.2 | – | – | – |
| CNC(N)=Nc1ccc(C(=O)N(Cc2ccc(C(F)(F)F)cn2)[C@H](C)c2cccc(F)c2F)cn1 [Compound 91] | 96 | 2010 | 2.2 | – | – | – |
| CNC(N)=Nc1ccc(C(=O)N(Cc2ccc(C(F)(F)F)cn2)C2CCCc3ccccc32)cn1 (stereo not drawn) [Compound 61] | 28 | 769 | 1.4 | – | – | – |
| CNC(N)=Nc1ccc(C(=O)N(Cc2cscn2)[C@H](C)c2ccccc2F)cn1 [Compound 104] | 416 | > 10000 | 5.8 | – | – | – |
| CNC(N)=Nc1ccc(C(=O)N(Cc2ccc(C(F)(F)F)cn2)C(C)c2ccccc2F)cn1 (stereo not drawn) [Compound 42] | 61 | 982 | 1.6 | – | – | – |
| CNC(N)=Nc1ccc(C(=O)N(Cc2ccc(C(F)(F)F)cc2)[C@H](C)c2ccccc2F)cn1 [Compound 108] | 48 | 452 | 7.9 | – | – | – |
| CN/C(N)=N\c1ccc(C(=O)N(Cc2ccc(C(C)(C)F)cn2)[C@H](C)c2ccccc2F)cn1 [Compound 75, (R,Z)-6-((amino(methylamino)methylene)amino)-N-(1-(2-fluorophenyl)ethyl)-N-((5-(2-fluoropropan-2-yl)pyridin-2-yl)methyl)nicotinamide] | 36 | 844 | 2.6 | – | – | – |
| CNC(N)=Nc1ccc(C(=O)N(Cc2ccc(-c3cccnc3)cn2)[C@H](C)c2ccccc2F)cn1 [Compound 68] | 169 | 1990 | 7.7 | – | – | – |
| CNC(N)=Nc1ccc(C(=O)N(Cc2ccc(F)cc2)[C@H](C)c2ccccc2F)cn1 [Compound 112] | 304 | 2340 | 6.1 | – | – | – |
